Structures can show the parent of a compound that is named as a salt. Each block holds one compound with its values, some of them ahead of it.
Assays:
human eNOS (heNOS) = molecular target: T1, human eNOS (heNOS) (Homo sapiens, UniProt P29474); assay: Hemoglobin capture assay, purified human eNOS; type: biochemical
T1 construct: made in house; host or cells: E. coli

H2 receptor = H2 receptor (Homo sapiens, UniProt P25021); assay: PDSP off-target profiling, H2 receptor; type: binding
human iNOS (hiNOS) = human iNOS (hiNOS) (Homo sapiens, UniProt P35228); conditions: read-out: Ki hiNOS; Ki calculated from IC50 (Cheng-Prusoff)
[1] = molecular target: rat nNOS D597N single mutant (Rattus norvegicus, UniProt P29476, D597N)
rat nNOS (rnNOS) = molecular target: T2, rat nNOS (rnNOS) (Rattus norvegicus, UniProt P29476); assay: Hemoglobin capture assay, purified rat nNOS; type: biochemical
T2 construct: made in house; host or cells: E. coli

H3 receptor = H3 receptor (Homo sapiens, UniProt Q9Y5N1); assay: PDSP off-target profiling, H3 receptor
H3 receptor, sequence (Q9Y5N1 whole entry): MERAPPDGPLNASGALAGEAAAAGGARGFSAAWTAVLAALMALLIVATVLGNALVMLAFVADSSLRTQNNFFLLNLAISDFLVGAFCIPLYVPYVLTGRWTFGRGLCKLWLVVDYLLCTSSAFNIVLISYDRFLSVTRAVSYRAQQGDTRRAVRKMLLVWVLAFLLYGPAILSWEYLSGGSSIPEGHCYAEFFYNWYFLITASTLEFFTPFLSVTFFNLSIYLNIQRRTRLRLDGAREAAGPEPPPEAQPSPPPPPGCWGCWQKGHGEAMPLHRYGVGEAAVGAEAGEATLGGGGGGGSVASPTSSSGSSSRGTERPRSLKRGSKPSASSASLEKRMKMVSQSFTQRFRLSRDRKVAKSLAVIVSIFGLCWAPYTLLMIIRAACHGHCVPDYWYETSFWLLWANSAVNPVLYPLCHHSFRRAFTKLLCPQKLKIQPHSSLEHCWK

[2] = system: panel of 45 pharmacologically relevant CNS targets and receptors; conditions: for PDSP binding summary: insignificant: 10 µM
[3] = molecular target: rat nNOS M336V/D597N double mutant (Rattus norvegicus, UniProt P29476, D597N/M336V); conditions: versus the single mutant
[4] = PAMPA

H2 receptor, sequence (P25021 whole entry): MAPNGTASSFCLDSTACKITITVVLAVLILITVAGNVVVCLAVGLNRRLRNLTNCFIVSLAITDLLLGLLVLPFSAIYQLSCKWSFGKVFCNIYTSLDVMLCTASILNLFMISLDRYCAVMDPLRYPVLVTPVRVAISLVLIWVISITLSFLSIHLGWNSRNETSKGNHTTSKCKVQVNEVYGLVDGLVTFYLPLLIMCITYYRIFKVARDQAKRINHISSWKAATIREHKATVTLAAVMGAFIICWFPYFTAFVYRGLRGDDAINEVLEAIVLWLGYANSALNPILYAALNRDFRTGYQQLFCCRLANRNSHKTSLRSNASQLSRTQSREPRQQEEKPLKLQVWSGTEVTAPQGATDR

Compound: 7-(3-(2-Aminoethyl)phenyl)-4-methylquinolin-2-amine Dihydrochloride [Compound 12]
Ki (human eNOS (heNOS); Ki calculated from IC50): 52.6 µM
ΔGbind WT heNOS (human eNOS (heNOS); obtained from Ki values): -4.5 kcal/mol
off-target binding classification, H2 receptor (H2 receptor): concerning (concerning (Ki<100 nM, or <˜2× nNOS Ki value))
Ki (human iNOS (hiNOS)): 29.9 µM
ΔGbind hnNOS D597N mutant ([1]; obtained from Ki values): -7.3 kcal/mol
decrease in potency, D597N mutant ([1]; versus wild type): 8 fold
% remaining at 60 min (—NADPH) (HLM without NADPH, 60 min): 87%
% remaining at 60 min (buffer) (buffer control, 60 min): 67%
t1/2 (half-life in HLM, Dihydrochloride): >1 h
CLint (in vitro intrinsic clearance, HLM): 8 mL/min/kg

loss in rnNOS potency relative to comparator (rat nNOS (rnNOS); 6 vs 5, 15 and 18 vs 12, 17 vs 7): approximately 3 fold
Ki (rat nNOS (rnNOS); wild-type rat nNOS, Ki calculated from IC50): 0.18 µM
Compound: Cc1cc(N)nc2cc(-c3ccc4c(c3)C(N)CC4)ccc12.Cl.Cl (racemic) [Compound 18, 7-(3-Amino-2,3-dihydro-1H-inden-5-yl)-4-methylquinolin-2-amine Dihydrochloride]

Compound: Cc1cc(N)nc2cc(-c3ccc(CN)cc3)ccc12.Cl.Cl [Compound 7, 7-(4-(Aminomethyl)phenyl)-4-methylquinolin-2-amine Dihydrochloride]
increase in rnNOS activity (rat nNOS (rnNOS); relative to 5): 2.3 fold

Compound: Cc1cc(N)nc2cc(-c3ccc(OCC4CC4)c(CN)c3)ccc12.Cl.Cl [Compound 29, 7-(3-(Aminomethyl)-4-(cyclopropylmethoxy)phenyl)-4-methylquinolin-2-amine Dihydrochloride]
off-target binding classification, H3 receptor (H3 receptor): concerning (concerning (Ki<100 nM, or <˜2× nNOS Ki value))

fraction of concerning or moderate hits [2]: 11/45
PDSP binding summary: insignificant [2]: 12
Compound: Cc1cc(N)nc2cc(-c3ccc(OCc4ccccn4)c(CN)c3)ccc12.Cl.Cl.Cl [Compound 32, 7-(3-(Aminomethyl)-4-(pyridin-2-ylmethoxy)phenyl)-4-methylquinolin-2-amine Trihydrochloride]

improvement in binding affinity toward heNOS (human eNOS (heNOS); 33 versus 32): 3 fold
fraction of concerning or moderate hits [2]: 8/45
PDSP binding summary: insignificant [2]: 20
Compound: Cc1cc(N)nc2cc(-c3ccc(OCc4cccnc4)c(CN)c3)ccc12.Cl.Cl.Cl [Compound 33, 7-(3-(Aminomethyl)-4-(pyridin-3-ylmethoxy)phenyl)-4-methylquinolin-2-amine Trihydrochloride]

increased potency against the double mutant [3]: 5 fold
Compound: Cc1cc(N)nc2cc(-c3ccc(OCc4cocn4)c(CN)c3)ccc12 [Compound 36, 7-(3-(Aminomethy)-4-(oxazol-4-ylmethoxy)phenyl)-4-methylquinolin-2-amine Trihydrochloride]

prediction (CNS) [4]: CNS (−)
Compound: NCCc1ccc(O)c(O)c1 [dopamine]

Source: patent US20220411377A1, “SELECTIVE NEURONAL NITRIC OXIDE SYNTHASE INHIBITORS” (Northwestern University, priority 2019, published 2022)
